Where two headings read alike, the source gives them in different places.
Assays:
Human venous whole blood = assay: Human whole blood IFN-γ assay; assay type: cell-based; conditions: human whole blood, read-out: INFg Whole Blood Normalized Agonist EC50;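 further: blood from healthy donors exposed to compound for 1 h before stimulation with anti-CD3 and anti-CD28 at 1 µg/mL each, IFN-γ quantified in supernatant by AlphaLISA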
Protocol: Human Whole Blood IFN-γ Assay
Human venous whole blood (22.5 μL per well), obtained from healthy donors, was pre-treated with compounds for one hour at 37° C. in a humidified 95% air/5% CO2 incubator. The blood was stimulated with 2.5 μL anti-human CD3 and anti-CD28 mAb at a final concentration of 1 μg/mL each for 24 hours at 37° C. IFN-γ in the supernatants was measured using AlphLISA kit (Cat # AL217).

human DGKζ = target: T1, human DGKζ (Homo sapiens, UniProt Q13574); assay: DGKζ LIPGLO assay (extruded liposome substrate), in vitro DGK inhibition; assay type: biochemical; conditions: read-out: DGKz LIPGLO IC50
T1 construct: TVMV protease cleavage site (C); Hexa-His (C); made in house; host or cells: Sf9 insect cells (baculovirus, Bac-to-Bac)

human DGKα = target: T2, human DGKα (Homo sapiens, UniProt P23743); assay: DGKα LIPGLO assay (extruded liposome substrate), in vitro DGK inhibition; assay type: biochemical; conditions: read-out: DGKa LIPGLO IC50
T2 construct: TVMV protease cleavage site (C); Hexa-His (C); made in house; host or cells: Sf9 insect cells (baculovirus, Bac-to-Bac)

[1] = normalized to 3 μM reference compound with anti-CD3 plus anti-CD28 as 100% activation
[2] = anti-CD3 plus anti-CD28, 24 hours, 3 μM reference compound = 100% activation
[3] = Homo sapiens, 24 h, normalized to 3 μM reference compound with anti-CD3 plus anti-CD28 as 100% activation
[4] = Homo sapiens, 24 h, anti-CD3 plus anti-CD28, 24 hours, 3 μM reference compound = 100% activation

T1 sequence (Q13574 with tags, fused parts or gaps isoform Q13574-4): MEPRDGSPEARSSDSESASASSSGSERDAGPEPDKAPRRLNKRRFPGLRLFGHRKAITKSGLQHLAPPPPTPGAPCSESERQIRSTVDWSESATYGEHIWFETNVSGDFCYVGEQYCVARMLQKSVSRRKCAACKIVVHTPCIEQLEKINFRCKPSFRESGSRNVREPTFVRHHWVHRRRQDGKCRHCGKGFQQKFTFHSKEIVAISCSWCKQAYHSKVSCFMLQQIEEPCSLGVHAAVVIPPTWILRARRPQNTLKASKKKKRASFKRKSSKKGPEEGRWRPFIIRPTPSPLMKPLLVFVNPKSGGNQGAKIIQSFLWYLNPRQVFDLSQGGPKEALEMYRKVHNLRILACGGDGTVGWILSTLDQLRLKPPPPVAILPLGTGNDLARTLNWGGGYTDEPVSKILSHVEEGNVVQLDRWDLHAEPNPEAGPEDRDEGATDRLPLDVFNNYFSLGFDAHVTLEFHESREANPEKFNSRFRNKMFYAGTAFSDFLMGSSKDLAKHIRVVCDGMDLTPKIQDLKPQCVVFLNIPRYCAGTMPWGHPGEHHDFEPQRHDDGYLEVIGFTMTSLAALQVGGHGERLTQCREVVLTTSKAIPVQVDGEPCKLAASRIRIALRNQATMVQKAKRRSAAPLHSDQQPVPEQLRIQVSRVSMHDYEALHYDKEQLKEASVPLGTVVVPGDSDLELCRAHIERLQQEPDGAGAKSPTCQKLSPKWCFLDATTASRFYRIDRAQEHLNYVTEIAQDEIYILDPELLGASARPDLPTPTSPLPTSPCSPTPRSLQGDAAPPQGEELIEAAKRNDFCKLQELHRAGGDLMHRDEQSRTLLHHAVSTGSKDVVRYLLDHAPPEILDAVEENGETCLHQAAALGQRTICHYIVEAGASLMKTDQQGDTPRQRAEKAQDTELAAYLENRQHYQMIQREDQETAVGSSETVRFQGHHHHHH
T2 sequence (P23743 with tags, fused parts or gaps): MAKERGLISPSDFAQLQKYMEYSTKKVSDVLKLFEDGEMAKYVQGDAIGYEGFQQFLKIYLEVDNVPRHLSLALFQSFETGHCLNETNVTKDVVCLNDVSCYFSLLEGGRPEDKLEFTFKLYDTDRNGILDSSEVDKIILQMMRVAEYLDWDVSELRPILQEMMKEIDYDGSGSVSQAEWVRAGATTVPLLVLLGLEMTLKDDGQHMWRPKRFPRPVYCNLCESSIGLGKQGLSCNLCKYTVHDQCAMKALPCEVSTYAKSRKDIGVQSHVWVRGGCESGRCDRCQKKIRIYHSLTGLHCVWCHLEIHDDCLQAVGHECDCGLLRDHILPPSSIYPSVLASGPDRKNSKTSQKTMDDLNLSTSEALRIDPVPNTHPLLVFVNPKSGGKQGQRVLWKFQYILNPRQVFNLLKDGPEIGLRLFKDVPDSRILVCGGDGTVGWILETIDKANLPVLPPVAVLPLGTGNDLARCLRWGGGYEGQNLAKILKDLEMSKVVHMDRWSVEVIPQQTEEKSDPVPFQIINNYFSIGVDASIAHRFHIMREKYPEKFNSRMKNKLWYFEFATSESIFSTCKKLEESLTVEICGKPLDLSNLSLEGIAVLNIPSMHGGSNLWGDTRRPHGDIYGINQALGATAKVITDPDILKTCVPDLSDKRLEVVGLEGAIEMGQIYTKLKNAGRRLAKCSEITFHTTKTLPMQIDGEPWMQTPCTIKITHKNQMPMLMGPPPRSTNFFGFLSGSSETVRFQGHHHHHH

SMILES	EC50 (Human venous whole blood; [1])	IC50 (human DGKζ; liposome (LIPGLO) assay)	IC50 (human DGKα; liposome (LIPGLO) assay)	EC50 (Human venous whole blood; [2])	IC50 (human DGKζ; DGKζ liposome (LIPGLO) assay)	IC50 (human DGKα; DGKα liposome (LIPGLO) assay)	EC50 (Human venous whole blood; [3])	EC50 (Human venous whole blood; [4])
CC(c1ccc(F)c(Cl)c1)N1C[C@H](C)N(c2cc(=O)n(C)c3ccc(C#N)nc23)C[C@H]1C (single isomer, unassigned) [Example 1256]	480 nM	180 nM	680 nM					
CC(c1ccccc1F)N1C[C@H](C)N(c2c(C#N)c(=O)n(C)c3ccc(C#N)nc23)C[C@H]1C (single isomer, unassigned) [Example 798]				20000 nM	> 250000 nM	9800 nM		
C[C@@H]1CN(c2cc(=O)n(C)c3ccc(C#N)nc23)[C@@H](C)CN1C(c1cccc(F)c1)c1ccccn1 (single isomer, unassigned) [Example 379]		2100 nM	2000 nM				1100 nM	
C[C@@H]1CN(c2c(C#N)c(=O)n(C)c3ccc(C#N)nc23)[C@@H](C)CN1C(c1ccc(Cl)cc1)c1ccc(F)cn1 (single isomer, unassigned) [Example 830]				1900 nM	9600 nM	1500 nM		
C[C@@H]1CN(c2c(C#N)c(=O)n(C)c3ccc(C#N)nc23)[C@@H](C)CN1C(c1ccc(F)cc1)c1ccc(C#N)cc1 (single isomer, unassigned) [Example 824]				3200 nM	11000 nM	16000 nM		
C[C@@H]1CN(c2cc(=O)n(C)c3ccc(C#N)nc23)[C@@H](C)CN1C(c1ccc(F)cc1)c1cscn1 (stereo partly drawn) [Example 722]				840 nM	560 nM	120 nM		
CC(c1cc(F)cc(OC(F)(F)F)c1)N1C[C@H](C)N(c2cc(=O)n(C)c3ccc(C#N)nc23)C[C@H]1C (single isomer, unassigned) [Example 1211]	8300 nM	670 nM	13000 nM					
CC(c1nc(C2CC2)cs1)N1C[C@H](C)N(c2cc(=O)n(C)c3ccc(C#N)nc23)C[C@H]1C (single isomer, unassigned) [Example 647]	5200 nM	75 nM	220 nM					
C[C@@H]1CN(c2cc(=O)n(C)c3ccc(C#N)nc23)[C@@H](C)CN1C(c1ccc(F)cc1)c1nccn1C (stereo partly drawn) [Example 714]	3900 nM	28000 nM	18000 nM					
C[C@@H]1CN(c2c(C#N)c(=O)n(C)c3ccc(C#N)nc23)CCN1Cc1ccccc1C#N [Example 1009]					6700 nM	1800 nM		20000 nM
CC(c1cc(C(C)(C)C)on1)N1C[C@H](C)N(c2cc(=O)n(C)c3ccc(C#N)nc23)C[C@H]1C (single isomer, unassigned) [Example 1283]		7600 nM	4100 nM				4000 nM	
C[C@@H]1CN(c2cc(=O)n(C)c3ccc(C#N)nc23)[C@@H](C)CN1C(c1ccc(Br)cc1)c1nc(C2CC2)no1 (stereo partly drawn) [Example 761]				170 nM	41 nM	48 nM		
C[C@@H]1CN(c2c(F)c(=O)n(C)c3ccc(C#N)nc23)[C@@H](C)CN1C(c1ccc(F)cc1)c1ccc(C(F)(F)F)cc1 (stereo partly drawn) [Example 325, 7-fluoro-8-((2S,5R)-4-((4-fluorophenyl)(4-(trifluoromethyl)phenyl)methyl)-2,5-dimethylpiperazin-1-yl)-5-methyl-6-oxo-5,6-dihydro-1,5-naphthyridine-2-carbonitrile]	3200 nM	2300 nM	680 nM					
CC[C@@H]1CN(c2cc(=O)n(C)c3ccc(C#N)nc23)[C@@H](CC)CN1Cc1ccc(F)cc1F [Example 1062]		76 nM	58 nM				110 nM	
C[C@@H]1CN(c2cc(=O)n(C)c3ccc(C#N)nc23)[C@@H](C)CN1Cc1ccc(OC(F)(F)F)c(C#N)c1 [Example 584]		7900 nM	5900 nM				3400 nM	
CCc1noc(C(c2ccc(F)cc2)N2C[C@H](C)N(c3cc(=O)n(C)c4ccc(C#N)nc34)C[C@H]2C)n1 (single isomer, unassigned) [Example 753]				640 nM	160 nM	400 nM		
C[C@@H]1CN(c2cc(=O)n(C)c3ccc(C#N)nc23)[C@@H](C)CN1Cc1cccc2c1OCCN2 [Example 634]		9000 nM	4300 nM				2900 nM	
C[C@@H]1CN(c2c(C#N)c(=O)n(C)c3ccc(C#N)nc23)[C@@H](C)CN1C(c1ccc(F)cc1)c1csc(C2CC2)n1 (single isomer, unassigned) [Example 859]				3700 nM	360 nM	3000 nM		
CC[C@@H]1CN(c2cc(=O)n(C)c3ccc(C#N)nc23)[C@@H](CC)CN1Cc1ccc(OC(F)(F)F)cc1F [Example 1370]		140 nM	23 nM				240 nM	

SMILES	EC50 (Human venous whole blood; [1])	IC50 (human DGKζ; liposome (LIPGLO) assay)	IC50 (human DGKα; liposome (LIPGLO) assay)	EC50 (Human venous whole blood; [2])	IC50 (human DGKζ; DGKζ liposome (LIPGLO) assay)	IC50 (human DGKα; DGKα liposome (LIPGLO) assay)	EC50 (Human venous whole blood; [3])	EC50 (Human venous whole blood; [4])
C[C@@H]1CN(c2cc(=O)n(C)c3ccc(C#N)nc23)[C@@H](C)CN1C(c1ccc(F)cn1)c1ccc(F)cn1 [Example 407, 8-((2S,5R)-4-(bis(5-fluoropyridin-2-yl)methyl)-2,5-dimethylpiperazin-1-yl)-5-methyl-6-oxo-5,6-dihydro-1,5-naphthyridine-2-carbonitrile]		1000 nM	29 nM				20000 nM	
CC(c1nc(C2CC2)no1)N1C[C@H](C)N(c2c(C#N)c(=O)n(C)c3ccc(C#N)nc23)C[C@H]1C (single isomer, unassigned) [Example 1307]		14000 nM	5600 nM				20000 nM	
CCC(c1ccc(OCC2CC2)cc1)N1C[C@H](C)N(c2cc(=O)n(C)c3ccc(C#N)nc23)C[C@H]1C (single isomer, unassigned) [Example 1440]		1100 nM	1600 nM				2100 nM	
CC[C@H]1CN(C(C)c2ccc3c(c2)OC(F)(F)O3)[C@H](CC)CN1c1cc(=O)n(C)c2ccc(C#N)nc12 (single isomer, unassigned) [Example 1368]	63 nM	34 nM	330 nM					
C[C@@H]1CN(c2c(C#N)c(=O)n(C)c3ccc(C#N)nc23)CCN1C(c1ccc(F)cc1)c1ccc(C(F)(F)F)cn1 (single isomer, unassigned) [Example 897]				13000 nM	5100 nM	250 nM		
CC(c1ccc(OC(F)(F)F)c(F)c1)N1C[C@H](C)N(c2cc(=O)n(C)c3ccc(C#N)nc23)C[C@H]1C (single isomer, unassigned) [Example 1204]	540 nM	470 nM	120 nM					
Cc1cc(C(c2ccc(F)cc2)N2C[C@H](C)N(c3cc(=O)n(C)c4ccc(C#N)nc34)C[C@H]2C)no1 (single isomer, unassigned) [Example 734]				1400 nM	290 nM	180 nM		
[2H]C(CC)(c1ccc(F)cc1)N1C[C@H](C)N(c2cc(=O)n(C)c3ccc(C#N)nc23)C[C@H]1C (single isomer, unassigned) [Example 575]	360 nM	1600 nM	180 nM					
CC(c1ccc(-n2cncn2)cc1)N1C[C@H](C)N(c2cc(=O)n(C)c3ccc(C#N)nc23)C[C@H]1C (single isomer, unassigned) [Example 1238]	9700 nM	3200 nM	200 nM					
Cc1ccc(C(c2ccc(F)cc2)N2CCN(c3c(C#N)c(=O)n(C)c4ccc(C#N)nc34)C[C@H]2C)nc1 (single isomer, unassigned) [Example 904]					1400 nM	170 nM		520 nM
CCc1ccc(C(c2ccc(F)cc2)N2C[C@H](C)N(c3c(C#N)c(=O)n(C)c4ccc(C#N)nc34)C[C@H]2C)cc1 (single isomer, unassigned) [Example 812]				2800 nM	510 nM	17000 nM		
C[C@@H]1CN(c2cc(=O)n(C)c3ccc(C#N)nc23)[C@@H](C)CN1Cc1ccc(OC(F)(F)F)c(Cl)c1 [Example 611]		21000 nM	6800 nM				3700 nM	
C[C@@H]1CN(c2c(C#N)c(=O)n(C)c3ccc(C#N)nc23)CCN1C(c1ccc(F)cc1)c1nc(C2CC2)no1 (single isomer, unassigned) [Example 1030]	670 nM	1100 nM	2200 nM					
CC[C@@H]1CN(c2cc(=O)n(C)c3ccc(C#N)nc23)[C@@H](C)CN1C(c1ccc(F)cc1)c1ccc(F)cc1 [Example 1097]		210 nM	400 nM				660 nM	
CC[C@@H]1CN(c2cc(=O)n(C)c3ccc(C#N)nc23)[C@@H](C)CN1C(C)c1ccc(C2CC2)cc1F (single isomer, unassigned) [Example 1340]	80 nM	40 nM	630 nM					
COC[C@@H]1CN(c2cc(=O)n(C)c3ccc(C#N)nc23)[C@@H](C)CN1C(c1ccc(F)cc1)c1ccon1 (single isomer, unassigned) [Example 1400]	120 nM	20 nM	53 nM					
C[C@@H]1CN(c2c(C#N)c(=O)n(C)c3ccc(C#N)nc23)[C@@H](C)CN1C(c1ccc(F)cc1)c1nc(C2CC2)no1 (single isomer, unassigned) [Example 861]				420 nM	630 nM	420 nM		
C[C@@H]1CN(c2c(C#N)c(=O)n(C)c3ccc(C#N)nc23)CCN1Cc1ccc2ccccc2n1 [Example 992]					3200 nM	1300 nM		5800 nM
C[C@H]1CN(C(c2ccc(F)cc2)c2ccc(C(F)(F)F)cn2)[C@H](CO)CN1c1cc(=O)n(C)c2ccc(C#N)nc12 (single isomer, unassigned) [Example 1389]	920 nM	880 nM	170 nM					
